According to ChEMBL document CHEMBL1201862, “PubChem BioAssay data set” (2004):
Activity calls are given as the source filed them.

Legend:
[1] = biological target: T1, Heat shock factor protein 1 (Mus musculus, UniProt P38532); assay: HSF1 potentiators in luciferase reporter cells, confirmation, cell-based, NIH3T3, luminescence, dose retest (AID 435004); type: functional;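 note: stress induced by proteasome inhibitor MG132 added 30 min after compound; luciferase reporter driven by HSF1 response element in NIH3T3 cells; actives raise luminescence as potentiators of the MG132 stress response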
T1 sequence (P38532 whole entry): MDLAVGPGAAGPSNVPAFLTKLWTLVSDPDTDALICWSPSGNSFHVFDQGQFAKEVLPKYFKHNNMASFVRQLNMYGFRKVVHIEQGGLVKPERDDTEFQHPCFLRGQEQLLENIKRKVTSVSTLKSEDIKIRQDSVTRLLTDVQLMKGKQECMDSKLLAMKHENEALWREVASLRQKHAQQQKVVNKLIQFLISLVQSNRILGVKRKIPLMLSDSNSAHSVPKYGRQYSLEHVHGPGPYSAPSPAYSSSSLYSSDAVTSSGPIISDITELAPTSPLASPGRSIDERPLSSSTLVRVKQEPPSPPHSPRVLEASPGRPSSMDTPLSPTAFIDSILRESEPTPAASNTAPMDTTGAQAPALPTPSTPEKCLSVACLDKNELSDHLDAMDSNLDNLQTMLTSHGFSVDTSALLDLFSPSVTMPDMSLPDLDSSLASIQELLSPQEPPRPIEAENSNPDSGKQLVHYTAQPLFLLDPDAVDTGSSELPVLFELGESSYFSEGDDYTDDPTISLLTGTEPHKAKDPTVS

[2] = cells; type: functional
[3] = biological target: T2, Cytochrome P450 1A2 (Homo sapiens, UniProt P05177);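 note: PubChem cytochrome P450 panel assay, CYP1A2 panel member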
T2 sequence (P05177 whole entry): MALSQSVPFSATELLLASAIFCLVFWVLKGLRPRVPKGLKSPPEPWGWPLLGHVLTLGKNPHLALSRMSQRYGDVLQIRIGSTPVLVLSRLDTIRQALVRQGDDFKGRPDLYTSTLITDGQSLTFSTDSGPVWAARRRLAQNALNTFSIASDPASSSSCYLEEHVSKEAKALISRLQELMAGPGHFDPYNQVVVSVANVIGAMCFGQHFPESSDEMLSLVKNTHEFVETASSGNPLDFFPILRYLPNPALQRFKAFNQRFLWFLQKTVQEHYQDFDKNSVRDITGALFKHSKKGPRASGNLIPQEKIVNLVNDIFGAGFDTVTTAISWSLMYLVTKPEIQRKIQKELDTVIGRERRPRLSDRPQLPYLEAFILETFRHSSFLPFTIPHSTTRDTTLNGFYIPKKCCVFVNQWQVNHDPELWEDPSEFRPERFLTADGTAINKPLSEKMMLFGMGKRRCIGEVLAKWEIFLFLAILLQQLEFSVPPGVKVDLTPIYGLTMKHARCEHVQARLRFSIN

[4] = biological target: T3, Corticotropin-releasing factor receptor 2/Corticotropin-releasing factor-binding protein (Homo sapiens, UniProt P24387+Q13324); assay: Dose Response confirmation of uHTS hits for small molecule antagonists of the CRF-binding protein and CRF-R2 receptor complex.; type: functional; conditions: read-out: IC50_Mean
T3 sequence (Q13324 whole entry): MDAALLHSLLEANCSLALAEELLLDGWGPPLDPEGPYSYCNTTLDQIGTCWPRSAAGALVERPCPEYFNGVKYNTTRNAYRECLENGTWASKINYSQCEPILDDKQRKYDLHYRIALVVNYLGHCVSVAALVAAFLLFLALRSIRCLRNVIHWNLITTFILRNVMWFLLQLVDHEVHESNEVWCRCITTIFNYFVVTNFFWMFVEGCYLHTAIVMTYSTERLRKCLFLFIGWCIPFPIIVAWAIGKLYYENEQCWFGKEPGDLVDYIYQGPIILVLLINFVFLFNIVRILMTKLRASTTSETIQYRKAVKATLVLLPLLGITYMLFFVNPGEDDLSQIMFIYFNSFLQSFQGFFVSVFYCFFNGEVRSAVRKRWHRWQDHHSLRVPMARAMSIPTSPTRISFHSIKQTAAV
T3 sequence (P24387 whole entry): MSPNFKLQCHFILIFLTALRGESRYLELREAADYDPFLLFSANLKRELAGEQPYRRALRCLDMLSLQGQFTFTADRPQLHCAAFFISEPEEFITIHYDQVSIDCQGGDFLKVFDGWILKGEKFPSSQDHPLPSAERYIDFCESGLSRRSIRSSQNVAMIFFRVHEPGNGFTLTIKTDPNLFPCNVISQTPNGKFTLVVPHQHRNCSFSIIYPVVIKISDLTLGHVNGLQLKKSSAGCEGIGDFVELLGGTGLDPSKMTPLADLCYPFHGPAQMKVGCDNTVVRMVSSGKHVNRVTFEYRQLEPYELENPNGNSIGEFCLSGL

[5] = biological target: T3, Corticotropin-releasing factor receptor 2/Corticotropin-releasing factor-binding protein; assay: activators of CRF receptor 2 with binding protein – uHTS hits, confirmation (AID 602473); type: functional; conditions: read-out: EC50_Mean
[6] = biological target: Cytochrome P450 2D6 (Homo sapiens, UniProt P10635);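 note: CYP2D6 member of a cytochrome P450 panel assay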
Sequence of Cytochrome P450 2D6 (P10635 whole entry): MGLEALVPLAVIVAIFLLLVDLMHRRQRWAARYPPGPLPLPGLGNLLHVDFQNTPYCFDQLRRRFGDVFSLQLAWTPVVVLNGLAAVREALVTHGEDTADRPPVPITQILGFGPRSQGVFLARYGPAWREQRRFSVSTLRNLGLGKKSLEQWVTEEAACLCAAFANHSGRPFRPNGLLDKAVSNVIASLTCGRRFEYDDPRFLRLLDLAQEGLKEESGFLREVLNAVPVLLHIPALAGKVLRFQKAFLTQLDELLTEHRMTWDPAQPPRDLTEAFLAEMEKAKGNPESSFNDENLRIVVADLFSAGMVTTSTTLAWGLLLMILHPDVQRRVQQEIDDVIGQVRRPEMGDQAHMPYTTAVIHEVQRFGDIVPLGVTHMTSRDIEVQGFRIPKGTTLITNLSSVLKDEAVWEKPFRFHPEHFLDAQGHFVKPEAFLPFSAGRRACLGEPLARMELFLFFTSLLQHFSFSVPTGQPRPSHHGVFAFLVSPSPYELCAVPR

[7] = biological target: Cytochrome P450 2C9 (Homo sapiens, UniProt P11712)
Sequence of Cytochrome P450 2C9 (P11712 whole entry): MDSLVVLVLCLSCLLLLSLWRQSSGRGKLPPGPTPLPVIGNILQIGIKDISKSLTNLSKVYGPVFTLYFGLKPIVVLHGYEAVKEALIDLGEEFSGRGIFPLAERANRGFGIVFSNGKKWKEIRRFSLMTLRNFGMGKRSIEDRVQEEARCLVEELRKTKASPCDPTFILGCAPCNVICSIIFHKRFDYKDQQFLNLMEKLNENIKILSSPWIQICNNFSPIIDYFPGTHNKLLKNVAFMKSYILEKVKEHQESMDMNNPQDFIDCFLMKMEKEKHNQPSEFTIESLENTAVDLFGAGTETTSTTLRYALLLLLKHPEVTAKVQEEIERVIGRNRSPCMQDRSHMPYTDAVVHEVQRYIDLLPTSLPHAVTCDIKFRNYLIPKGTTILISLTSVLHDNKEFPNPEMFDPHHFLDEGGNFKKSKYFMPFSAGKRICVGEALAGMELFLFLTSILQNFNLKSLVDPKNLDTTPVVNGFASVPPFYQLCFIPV

[8] = biological target: Cytochrome P450 2C19 (Homo sapiens, UniProt P33261); assay: Cytochrome panel assay with activity outcomes. Panel member name: p450-cyp2c19 Compounds with AC50 equal or less than 10 uM are considered active; type: functional
Sequence of Cytochrome P450 2C19 (P33261 whole entry): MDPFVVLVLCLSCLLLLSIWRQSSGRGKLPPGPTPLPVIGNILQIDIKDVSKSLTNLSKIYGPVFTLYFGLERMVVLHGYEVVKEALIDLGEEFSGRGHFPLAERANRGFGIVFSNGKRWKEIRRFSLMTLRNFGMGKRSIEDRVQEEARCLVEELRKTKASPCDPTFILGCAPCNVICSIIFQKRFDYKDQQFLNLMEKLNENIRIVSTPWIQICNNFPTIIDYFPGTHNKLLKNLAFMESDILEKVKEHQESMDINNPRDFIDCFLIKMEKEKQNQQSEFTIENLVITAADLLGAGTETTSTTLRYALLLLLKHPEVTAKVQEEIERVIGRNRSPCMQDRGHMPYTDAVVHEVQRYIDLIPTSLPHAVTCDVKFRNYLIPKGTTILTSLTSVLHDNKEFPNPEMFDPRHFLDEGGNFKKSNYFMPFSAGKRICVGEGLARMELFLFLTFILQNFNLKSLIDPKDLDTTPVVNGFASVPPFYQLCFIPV

[9] = biological target: T4, Protein skinhead-1 (Caenorhabditis elegans, UniProt P34707); type: functional
T4 sequence (P34707 whole entry): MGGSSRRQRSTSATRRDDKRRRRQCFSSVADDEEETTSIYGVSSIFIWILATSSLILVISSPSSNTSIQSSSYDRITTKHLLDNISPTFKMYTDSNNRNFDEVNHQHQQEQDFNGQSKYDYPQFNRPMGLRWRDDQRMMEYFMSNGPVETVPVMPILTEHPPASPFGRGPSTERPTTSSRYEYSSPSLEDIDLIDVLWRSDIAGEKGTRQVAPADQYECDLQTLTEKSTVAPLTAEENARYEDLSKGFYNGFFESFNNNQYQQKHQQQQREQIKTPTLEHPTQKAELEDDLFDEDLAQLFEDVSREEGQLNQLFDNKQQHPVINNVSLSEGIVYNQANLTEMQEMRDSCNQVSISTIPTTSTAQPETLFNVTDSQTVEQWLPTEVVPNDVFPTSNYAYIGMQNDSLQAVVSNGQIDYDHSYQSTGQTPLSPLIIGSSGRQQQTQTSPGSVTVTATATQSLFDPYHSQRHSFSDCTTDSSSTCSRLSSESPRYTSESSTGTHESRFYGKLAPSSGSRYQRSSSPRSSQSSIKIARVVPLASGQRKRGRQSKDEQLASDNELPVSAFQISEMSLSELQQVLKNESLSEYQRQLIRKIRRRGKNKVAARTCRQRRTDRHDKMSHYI

[10] = system: H9c2; assay: cells; type: functional, cell-based; conditions: Rattus norvegicus, H9c2, Myocardium;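 note: confirmatory concentration-response retest of ultra-high-throughput screening hits for modulation of myocardial damage; cell death induced by hydrogen peroxide oxidative stress; compound pretreatment for 60 min then peroxide exposure for 2 h; potency is for protecting the cells against peroxide damage rather than for killing them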
[11] = biological target: Cytochrome P450 3A4 (Homo sapiens, UniProt P08684);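 note: CYP3A4 tested as one member of a cytochrome P450 panel screen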
Sequence of Cytochrome P450 3A4 (P08684 whole entry): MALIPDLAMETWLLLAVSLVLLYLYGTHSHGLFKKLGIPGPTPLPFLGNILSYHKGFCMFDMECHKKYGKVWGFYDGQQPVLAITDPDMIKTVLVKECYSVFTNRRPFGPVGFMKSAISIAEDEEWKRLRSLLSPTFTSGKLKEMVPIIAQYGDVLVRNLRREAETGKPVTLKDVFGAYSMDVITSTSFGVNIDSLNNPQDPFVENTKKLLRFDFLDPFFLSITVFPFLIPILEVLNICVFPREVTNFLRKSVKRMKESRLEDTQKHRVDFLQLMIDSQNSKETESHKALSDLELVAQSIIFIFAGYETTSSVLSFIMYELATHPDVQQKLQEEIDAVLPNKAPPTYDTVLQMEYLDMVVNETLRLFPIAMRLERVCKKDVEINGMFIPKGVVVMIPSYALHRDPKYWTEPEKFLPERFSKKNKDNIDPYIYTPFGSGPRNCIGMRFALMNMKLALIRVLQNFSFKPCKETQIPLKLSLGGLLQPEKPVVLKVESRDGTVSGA

[12] = Luminescence Cell-Based Dose Retest to Confirm Inhibitors of Cancer Stem Cells. [Related pubchem assays (depositor defined):AID2717, AID2721]; type: functional; conditions: Homo sapiens

For CCC(C)NC(=O)CC(NS(=O)(=O)c1ccc(Cl)cc1)c1ccco1 (centres undefined), the EC50 [1] was > 260 µM (inactive).
In the case of COC(=O)c1cc(/C=C/c2ccccc2)on1, the IC50 [2] is reported as 5.44 µM (active) and the AC50 [3] is reported as 2 µM (inconclusive).
With O=C(CSc1nc2ccccc2n1CCc1ccccc1)NC1CCS(=O)(=O)C1 (centres undefined) the IC50 [4] was > 47.1 µM (inactive) and the EC50 [5] was > 53 µM (inactive).
For O=C(Nc1ccc(Cl)cc1)OCc1cc(-c2ccccc2)on1, the AC50 [6] was 3.98 µM (inconclusive) and the AC50 [7] was 2.82 µM (inconclusive).
In the case of CCN1C(=O)C2(SC(NC(C)=O)=NN2C(C)=O)c2cc(C)ccc21 (centres undefined), the AC50 ([8]; read-out: AC50) is reported as 14.1 µM (inconclusive) and the AC50 [7] is reported as 31.6 µM (inconclusive).
With Cc1ccc(C(=O)OCC(=O)N2CCCCCC2)c(O)c1 the IC50 [2] was 11.1 µM (active).
For CCOc1ccc(S(=O)(=O)NCCSc2ccccc2)cc1, the EC50 [1] was > 260 µM (inactive).
With CCOC(=O)CN1NC2(CCCC(C)C2)N=C1S (centres undefined) the IC50 [2] was 48.9 µM (active).
For Clc1ccc(Nc2ncnc3c2cnn3-c2ccccc2)cc1, the IC50 [9] was > 100 µM (inactive).
For CCOC(=O)C1CCN(C(=O)COc2cc(C)c(Br)c(C)c2)CC1, the IC50 [2] was 30.2 µM (active).
With Cc1cccc(C)c1NCc1nnc(SCC(=O)Nc2nc(-c3ccccc3)cs2)n1-c1ccccc1 the EC50 [1] was > 260 µM (inactive).
With O=[N+]([O-])c1ccc(Cc2nnc(O)c3ccccc23)cc1 the IC50 [10] was > 79 µM (inactive) and the IC50 [9] was > 100 µM (inactive).
For Cc1ccc(C(=O)N(C)CC(=O)Nc2ccc(N3CCOCC3)cc2)s1, the IC50 [9] was > 100 µM (inactive).
In the case of COc1cc(/C=C/c2ccc3c([N+](=O)[O-])cccc3n2)ccc1OCC(=O)O, the IC50 [2] is reported as 2.39 µM (active).
For CC(=O)Oc1ccc(/C=C2\N=C(C3CCCCC3)OC2=O)cc1, the IC50 [2] was 33.9 µM (active).
For Cc1ccc(N2Cc3ccccc3OC(C)C2=O)cc1 (centres undefined), the EC50 [1] was > 260 µM (inactive).
With CC(C)[C@@H]1O[C@H](/C=C\c2ccccc2)OCC1(C)C the AC50 ([8]; read-out: AC50) was 5.01 µM (inconclusive), the AC50 [11] was 5.01 µM (inconclusive) and the AC50 [7] was 3.16 µM (inconclusive).
For Cc1ccc(/C=C2\OC(=O)c3ccccc32)cc1, the AC50 [7] was 0.355 µM (inconclusive).
In the case of COc1ccc(CNC(=O)c2sc(=S)n(-c3ccc(OC)cc3)c2N)cc1, the IC50 [4] is reported as > 47.1 µM (inactive) and the EC50 [5] is reported as > 53 µM (inactive).
With COc1ccc([N+](=O)[O-])cc1NCc1ccccc1C the AC50 [6] was 17.8 µM (inconclusive) and the AC50 [7] was 17.8 µM (inconclusive).
In the case of O=C(CCN1CCCCC1=O)NC1CCCN(Cc2ccc(Cl)cc2)C1 (centres undefined), the IC50 [4] is reported as > 47.1 µM (inactive) and the EC50 [5] is reported as > 53 µM (inactive).
In the case of CC(=O)CSc1nc2ccccc2s1, the IC50 [9] is reported as > 100 µM (inactive).
With COC(=O)C1=C(C)N(c2ccc(OC)cc2)C(C)=C(C(=O)OC)C1c1ccccc1 the IC50 [4] was > 47.1 µM (inactive) and the EC50 [5] was > 53 µM (inactive).
With CN(C)/C=C/C(=O)c1cccc(Oc2ncccn2)c1 the EC50 [1] was > 260 µM (inactive).
In the case of CC(C)(CN)CC(=O)O, the EC50 [1] is reported as > 260 µM (inactive).
For Cc1cccc(-c2noc(C(C)NC(=O)c3ccco3)n2)c1 (centres undefined), the IC50 [4] was > 47.1 µM (inactive) and the EC50 [5] was > 53 µM (inactive).
For COC(=O)C(C)Sc1nc2c(c(=O)n(C)c(=O)n2C)n1CCC(C)C (centres undefined), the EC50 [1] was > 260 µM (inactive).
With O=[N+]([O-])c1cccc2ccc(/C=C/c3ccc(F)cc3)nc12 the IC50 [9] was > 100 µM (inactive).
For O=C1CC(N(Cc2ccc3c(c2)OCO3)C(=O)Nc2ccc(F)cc2)C(=O)N1c1ccccc1 (centres undefined), the EC50 [1] was > 260 µM (inactive).
With CC(/C=C/c1cccs1)=C\C(=O)O the EC50 [1] was > 260 µM (inactive).
In the case of CCc1ccc(-n2c(SCC(=O)Nc3cc(C)[nH]n3)nc3nncc-3c2O)cc1, the IC50 [9] is reported as > 100 µM (inactive).
With CCOC(=O)C1=C(C)N=C(C)/C(=C(\O)OCC)C1c1sccc1C (centres undefined) the AC50 [7] was 0.891 µM (inconclusive).
In the case of O=C(O)c1ccc2c(c1)CCCN2, the IC50 [9] is reported as > 100 µM (inactive).
In the case of Cc1noc(C(F)(F)F)c1C(=O)NNC(=O)c1cccc(C(F)(F)F)c1, the IC50 [4] is reported as > 47.1 µM (inactive) and the EC50 [5] is reported as > 53 µM (inactive).
For Cc1ccc(-n2nc3c(c2NC(=O)c2ccc(OC(C)C)cc2)C[S+]([O-])C3)cc1 (centres undefined), the IC50 [4] was > 47.1 µM (inactive) and the EC50 [5] was > 53 µM (inactive).
With NC(=O)c1ccc([N+](=O)[O-])cc1SCc1ccccc1 the AC50 [11] was 12.6 µM (inconclusive) and the AC50 [7] was 28.2 µM (inconclusive).
With COc1ccc(OC)c(-n2c(=O)c3ccccc3c3ccccc3c2=O)c1 the EC50 [1] was 30.2 µM (active).
In the case of CCCCc1cc(=O)oc2cc(OCC(=O)N(CC)CC)ccc12, the AC50 ([8]; read-out: AC50) is reported as 31.6 µM (inconclusive) and the AC50 [7] is reported as 25.1 µM (inconclusive).
With O=C1Nc2ccccc2C(O)(C(=O)NCc2ccco2)N1c1ccc(Cl)c(Cl)c1 (centres undefined) the IC50 [9] was > 100 µM (inactive).
For Cc1ccc(C(=O)NC(=S)Nc2cccc3nsnc23)cc1, the AC50 [8] was “inconclusive” and the AC50 [7] was 35.5 µM (inconclusive).
With Nc1cc2c(cc1Cl)-c1ccccc1C2 the IC50 [9] was 52.5 µM (inactive).
In the case of CC(C)N(C(=O)C[n+]1ccsc1N)c1ccccc1, the IC50 [4] is reported as > 47.1 µM (inactive) and the EC50 [5] is reported as > 53 µM (inactive).
With COc1ccccc1C(=O)NCCC(=O)N1CCN(c2ccccc2O)CC1 the IC50 [4] was > 47.1 µM (inactive) and the EC50 [5] was > 53 µM (inactive).
In the case of Cc1cccn2c(/C=N/OCc3cccc(F)c3)c(-c3ccc(Cl)cc3)nc12, the AC50 [12] is reported as 4.13 µM (active), the IC50 [4] is reported as > 47.1 µM (inactive) and the EC50 [5] is reported as > 53 µM (inactive). The AC50 [11] was 14.1 µM (inconclusive).
With C/C(=N\OCC(=O)Nc1ccc(F)c(F)c1F)c1cc2ccccc2o1 the IC50 [4] was > 47.1 µM (inactive) and the EC50 [5] was > 53 µM (inactive).
For O=[N+]([O-])c1ccc(/C=N/NS(=O)(=O)c2ccc(Cl)cc2)o1, the IC50 [2] was 6.23 µM (active).
